According to patent US5424424A, “Tartaric acid derivatives of substituted dibenzoxazepine compounds, pharmaceutical compositions and methods of use” (G. D. Searle & Co., priority 1993, dated 1995):
Where a name gives a salt, the structure may show the parent alone.

Assays:
[1] = tested on: mice; experiment: Writhing Assay (phenylbenzoquinone-induced writhing, analgesia); type: in vivo, Charles River male albino mice; details: 30 mg per kilogram, intragastric, 30 minutes before PBQ i.p.; analgesia = writhes equal to or less than one-half the median of saline control
From the text: The Writhing Assay is one of the most widely-used experimental procedures for measuring the analgesic activity of different narcotic and nonnarcotic analgesic agents, and involves the continuous, chemically-induced pain of visceral origin to an animal, such as a mouse or rat. [Gyires et al., Arch. int. Pharmacodyn, 267, 131-140 (984); C. Vander Wende et al., Fed. Proc., 15, 494 (1956); Koster et al., Fed. Proc., 18, 412 (1959); and Witken et al., J. Pharmacol. exp. Ther., 133, 400-408 (1961).] Chemicals which may be used to induce this pain include phenylbenzoquinone (PBQ) and acetic acid. As a result of the chemical irritation to the animal, a characteristic stretching and writhing of the animal (dorsiflexion of the animal's back, extension of its hindlimbs and the strong contraction of its abdominal musculature) will generally occur. […] Drugs which reduce the number of writhes of the animal appear to restore the normal nociceptive threshold of the animal.
Charles River male albino mice, weighing 20 to 30 grams, were used in this assay.
Thirty minutes after intragastric administration to ten mice of 30 mg per kilogram of body weight of a compound of the present invention ("test compound"), […] per 10 g of body weight of a 0.025% w/v solution of PB was injected intraperitoneally into each mouse. Ten mice which were given saline in place of a test compound of the invention were used as a control group.
Five minutes later, each mouse was individually placed into a glass beaker for observation, and the number of writhes occurring during the following ten-minute period was counted.
A test compound was considered to have produced analgesia in a mouse if, in accordance with the conditions set forth above, and under the test criteria employed for this assay, after the administration of 30 mg per kilogram of body weight of a compound of the present invention to the mouse, the number of writhes elicited by a mouse injected with PBQ was equal to, or less than, one-half the median number of writhes recorded for the saline-treated control group of mice that day, as described by Taber in "Predictive Value of Analgesic Assays in Mice and Rats," Advances in Biochemical Psychopharmacology, 8, 191 (1974).
The results for the particular compounds of the present invention analyzed in this assay, and discussed in the examples identified below which correspond thereto, are presented in Table 1 hereinbelow as fractions under the heading "WRITHING ASSAY." The fractions indicate the number of mice out of ten in which a test compound produced analgesia.

[2] = tested on: prostaglandin E2-induced contractions of segments of guinea pig ileum; experiment: Prostaglandin (PGE) Antagonism Assay in guinea pig ileum; type: tissue-based, Male albino guinea pigs; details: dose ratio of prostaglandin E2 EC50 values; initial concentration 3 micromolar test compound, 37° C., incubated thirty minutes
Experimental: In order to determine the effectiveness of several of the compounds of the present invention ("test compounds") as prostaglandin E2 antagonists,a prostaglandin antagonism assay was conducted, as described below, to determine the ability of these compounds to inhibit prostaglandin E2 -induced contractions of segments of guinea pig ileum.
Male albino guinea pigs weighing 200 to 500 grams were sacrificed by cervical dislocation. The ilea were then quickly removed from the guinea pigs and placed in a modified Tyrode solution, a solution which is known to those skilled in the art, containing one-half of the usual amount of magnesium ions.
Segments of ileum about 2 cm long were then cut and mounted in a 10 mL tissue bath containing the modified Tyrode solution. The solution was maintained at 37° C. and aerated with a gaseous mixture of 95% oxygen and 5% carbon dioxide. Data for a control prostaglandin E2 dose response curve plotting concentration of prostaglandin E2 versus the intensity of contractions, detected isotonically, was then obtained by experimentally adjusting the dose of the prostaglandin E2 being injected into the tissue bath, in a manner known by those of skill in the art.
Solutions or suspensions containing an initial concentration (3 micromolar) of a test compound in modified Tyrode solution ("test solutions/suspensions") were then separately substituted for the control bath solution. Each test solution/suspension was then kept in constant contact with the ileum tissue, except for brief periods to drain the bath in preparation for rinsing with fresh test solution/suspension. A second prostaglandin E2 dose response curve was then generated for prostaglandin E2 in the presence of a test compound.
A control dose response curve is produced in isolated segments of guinea pig ileum mounted in an automated apparatus with six concentrations of prostaglandin E2. A solution or suspension of test compound is substituted for the control bathing solution and is incubated for thirty minutes. An additional prostaglandin E2 dose response curve is then performed in the presence of the test compound. A dose ratio is calculated from the EC50 values obtained from duplicate replications on each concentration of the test compound.
A dose ratio of EC50 doses was calculated from the results of each test in a manner known by those of skill in the art, and described above.
The compounds of the present invention which were tested in this assay, and for which results are presented in Table 1, correspond to the particular examples specified in Table 1.

SMILES | WRITHING ASSAY I.G.: number of mice out of ten in which a test compound produced analgesia [1] | PGE ANTAGONISM IN GUINEA PIG ILEUM Dose Ratio [2]
CC(=O)O[C@H](C(=O)NCCN(C)C)[C@H](OC(C)=O)C(=O)N1Cc2ccccc2Oc2ccc(Cl)cc21 [Example 2, αS,βS-Bis(acetyloxy)-8-chloro-N-[2-(dimethylamino)ethyl]-γ-oxodibenz[b,f][1,4]oxazepine-10(11H)-butanamide, monohydrochloride] | 0/10 | –
CC(=O)O[C@H](C(=O)NCc1ccncc1)[C@H](OC(C)=O)C(=O)N1Cc2ccccc2Oc2ccc(Cl)cc21 [Example 3, αS,βS-Bis(acetyloxy)-8-chloro-γ-oxo-N-(4-pyridinylmethyl)-dibenz[b,f][1,4]oxazepine-10(11H)-butanamide, hydrochloride] | 5/10 | 1.3
CC(=O)O[C@H](C(=O)NCc1cccnc1)[C@H](OC(C)=O)C(=O)N1Cc2ccccc2Oc2ccc(Cl)cc21 [Example 4, αS,βS-Bis(acetyloxy)-8-chloro-γ-oxo-N-(3-pyridinylmethyl)-dibenz[b,f][1,4]oxazepine-10(11H)-butanamide, hydrochloride] | 9/10 | 0.74
CC(=O)O[C@H](C(=O)NCc1ccccn1)[C@H](OC(C)=O)C(=O)N1Cc2ccccc2Oc2ccc(Cl)cc21 [Example 5, αS,βS-Bis(acetyloxy)-8-chloro-γ-oxo-N-(2-pyridinylmethyl)dibenz[b,f][1,4]oxazepine-10(11H)-butanamide, hydrochloride] | 5/10 | 1.7
CC(=O)O[C@@H](C(=O)NCc1ccncc1)[C@@H](OC(C)=O)C(=O)N1Cc2ccccc2Oc2ccc(Cl)cc21 [Example 7, αR,βR-Bis(acetyloxy)-8-chloro-γ-oxo-N-(4-pyridinylmethyl)dibenz[b,f][1,4]oxazepine-10(11H)-butanamide, hydrochloride] | 8/10 | 1.2
CC(=O)O[C@@H](C(=O)NCc1cccnc1)[C@@H](OC(C)=O)C(=O)N1Cc2ccccc2Oc2ccc(Cl)cc21 [Example 8, αR,βR-Bis(acetyloxy)-8-chloro-γ-oxo-N-(3-pyridinylmethyl)dibenz[b,f][1,4]oxazepine-10(11H)]-butanamide, hydrochloride] | 6/10 | 2.4
CC(=O)O[C@@H](C(=O)NCc1ccccn1)[C@@H](OC(C)=O)C(=O)N1Cc2ccccc2Oc2ccc(Cl)cc21 [Example 9, αR,βR-Bis(acetyloxy)-8-chloro-γ-oxo-N-(2-pyridinylmethyl)dibenz[b,f][1,4]oxazepine-10(11H)-butanamide, hydrochloride] | 5/10 | 1.1
